Like-named read-outs stand apart in the source and are kept apart here.
Key:
[1] = molecular target: T1, Pichia alcohol oxidase (Komagataella phaffii, UniProt F2QY27); conditions: crude enzyme saturated with salt crystals; assayed 1-2 minutes later
T1 sequence (F2QY27 2-663 limits assumed): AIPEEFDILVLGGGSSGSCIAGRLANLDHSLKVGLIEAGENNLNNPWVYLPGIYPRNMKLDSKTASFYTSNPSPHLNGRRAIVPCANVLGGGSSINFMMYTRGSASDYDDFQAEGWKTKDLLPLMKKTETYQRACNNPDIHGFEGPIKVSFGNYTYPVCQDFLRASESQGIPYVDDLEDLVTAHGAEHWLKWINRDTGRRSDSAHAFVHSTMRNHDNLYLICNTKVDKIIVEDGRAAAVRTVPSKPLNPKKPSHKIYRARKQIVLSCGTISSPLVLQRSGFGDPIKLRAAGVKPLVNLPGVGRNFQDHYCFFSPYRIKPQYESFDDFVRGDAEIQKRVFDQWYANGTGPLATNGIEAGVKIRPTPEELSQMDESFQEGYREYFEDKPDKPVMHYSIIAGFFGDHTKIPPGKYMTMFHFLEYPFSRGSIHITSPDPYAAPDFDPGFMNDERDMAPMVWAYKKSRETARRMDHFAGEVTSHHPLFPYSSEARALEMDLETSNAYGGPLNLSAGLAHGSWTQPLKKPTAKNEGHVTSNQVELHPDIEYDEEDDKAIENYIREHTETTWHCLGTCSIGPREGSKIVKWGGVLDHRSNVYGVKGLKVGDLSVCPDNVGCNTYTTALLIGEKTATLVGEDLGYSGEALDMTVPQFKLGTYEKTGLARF
Protocol: The alcohol oxidase activity for reaction with methanol was determined by the following assay procedure (dye-peroxidase method). A dye-buffer mixture was prepared by mixing 0.1 mL of an o-dianisidine solution (1 weight % o-dianisdine in water) with 12 mL of aerated 0.1 M sodium phosphate buffer (pH 7.5). The assay mixture was prepared with 2.5 mL of the dye-buffer mixture, 50 μL of methanol, 10 μL of a peroxidase solution (1 mg of horse-radish peroxidase-Sigma, Type II), and 25 μL of the alcohol oxidase solution. The assay mixture was maintained at 25° C. in a 4×1×1 cm cuvette and the increase in absorbance by the dye at 460 nm was recorded for 2 to 4 minutes. The enzyme activity was calculated by [formula] wherein 11.5 is a factor based on a standard curve prepared with known aliquots of H2 O2 and ΔA is the change in absorbance during the experimental interval.

[2] = molecular target: T1, Pichia alcohol oxidase
Protocol: The samples are allowed to stand at room temperature for 15 minutes. Color and enzyme activity are monitored at that time.

[3] = molecular target: Hansenula polymorpha alcohol oxidase (Pichia angusta, UniProt P04841); conditions: 1 mL crude Hansenula polymorpha enzyme preparation, a few crystals (one mg)
Protocol: Fermentation effluent from the aerobic fermentation of Hansenula polymorpha (prepared as described in Example II) was adjusted to pH 7.5 with concentrated ammonium hydroxide. Sample was homogenized and disrupted on a Dyno-Mill Model KDL using a 0.6 L vessel in a continuous operation at 30° C. using belt combination #3 and a flow of 20-30 mL/hr. The beads were lead-free glass beads with a diameter of 0.3-0.5 mm. The resulting homogenate was centrifuged for 20 minutes at 10,000×g to yield a cell-free supernatant.
One mL of this crude enzyme preparation was mixed with a few crystals (qualitative--one mg) of NaN3 is a test tube.

[4] = molecular target: alcohol oxidase (Komagataella phaffii, UniProt F2QY27)
Protocol: 3 mL of purified enzyme containing 3 mg/mL enzyme (crystallized as described in Example I) were placed in a 1-cm quartz cuvette. The solution was scanned from 350-550 nm.
where [formula] ΔA522 =change in absorbance at 522 nm upon NaN3 addition, and
ΔA522^max =total change in absorbance at 522 nm upon saturation of enzyme solution with NaN3.

[5] = molecular target: T2, purified Pichia alcohol oxidase (Komagataella phaffii, UniProt F2QY27); assay: biochemical; format: biochemical, Pichia pastoris
T2 construct: saturated solution of purified Pichia alcohol oxidase; endogenous in cells
T2 sequence (F2QY27 2-663 limits assumed): T1 sequence (F2QY27 2-663 limits assumed)
Protocol: A series of solutions were prepared by combining 3.9 mL standard phosphate buffer (pH 7.5) having NaN3 (g/l) as set forth in Table 8, 15 μL saturated solution of purified Pichia alcohol oxidase, and 50 μL methanol solution (% V/V in H2 O). Reaction velocity V (rate of methanol oxidation in the presence of alcohol oxidase) was monitored by a dissolved oxygen probe by following oxygen consumption (oxygen is consumed as alcohol substrate, S, is oxidized in the presence of the enzyme).

Sequence of Hansenula polymorpha alcohol oxidase (P04841 2-664 limits assumed): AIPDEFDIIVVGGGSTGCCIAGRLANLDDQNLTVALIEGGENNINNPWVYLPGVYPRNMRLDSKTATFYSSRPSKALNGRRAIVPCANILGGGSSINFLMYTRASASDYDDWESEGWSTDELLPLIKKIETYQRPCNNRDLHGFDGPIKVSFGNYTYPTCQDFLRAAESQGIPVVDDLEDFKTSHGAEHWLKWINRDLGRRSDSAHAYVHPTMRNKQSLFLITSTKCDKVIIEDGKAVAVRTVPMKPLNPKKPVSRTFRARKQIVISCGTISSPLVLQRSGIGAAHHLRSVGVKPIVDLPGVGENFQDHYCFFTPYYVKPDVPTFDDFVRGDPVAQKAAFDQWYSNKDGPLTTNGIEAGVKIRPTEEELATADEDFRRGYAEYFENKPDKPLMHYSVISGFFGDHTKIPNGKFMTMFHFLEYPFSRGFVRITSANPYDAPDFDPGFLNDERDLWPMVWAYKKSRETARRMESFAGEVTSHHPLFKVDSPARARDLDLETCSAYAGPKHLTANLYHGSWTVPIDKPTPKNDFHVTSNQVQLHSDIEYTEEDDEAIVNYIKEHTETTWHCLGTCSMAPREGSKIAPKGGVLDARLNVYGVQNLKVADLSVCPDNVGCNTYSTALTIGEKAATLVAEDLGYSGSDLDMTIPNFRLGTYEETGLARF

SMILES: [Cl-].[K+] [KCl]
- Relative Enz. Act. [1]: 2

SMILES: O=P([O-])(O)O.[K+] [KH2 PO4]
- Relative Enz. Act. [1]: 0

SMILES: N#CS [KSCN]
- EU/mL* at 15 min. [2]: 25 EU/mL

SMILES: [Cl-].[Li+] [LiCl]
- Relative Enz. Act. [1]: 0

SMILES: [Cl-].[Cl-].[Mg+2] [MgCl2]
- Relative Enz. Act. [1]: 0

SMILES: O=P([O-])([O-])O.[Na+].[Na+] [Na2 HPO4]
- Relative Enz. Act. [1]: 4

SMILES: CC(=O)O [NaAc]
- Relative Enz. Act. [1]: 4

SMILES: [Cl-].[Na+] [NaCl]
- Relative Enz. Act. [1]: 1

SMILES: O=P([O-])(O)O.[Na+] [NaH2 PO4]
- Relative Enz. Act. [1]: 0

SMILES: [N-]=[N+]=[N-].[Na+] [NaN3, sodium azide]
- Color on mixing with crude enzyme preparation [3]: Red color forms upon mixing
- fractional saturation, .PHI. ([4]; Excess (solid crystals) NaN3): 1.000
- fractional saturation, .PHI. ([4]; Moles N3^-/Moles Enzyme 1.15): .167
- fractional saturation, .PHI. ([4]; Moles N3^-/Moles Enzyme 1.54): .207
- fractional saturation, .PHI. ([4]; Moles N3^-/Moles Enzyme 1.92): .259
- fractional saturation, .PHI. ([4]; Moles N3^-/Moles Enzyme 2.31): .309
- fractional saturation, .PHI. ([4]; Moles N3^-/Moles Enzyme 3.02): .407
- fractional saturation, .PHI. ([4]; Moles N3^-/Moles Enzyme 3.85): .475
- fractional saturation, .PHI. ([4]; Moles N3^-/Moles Enzyme 4.61): .525
- fractional saturation, .PHI. ([4]; Moles N3^-/Moles Enzyme 5.38): .580
- fractional saturation, .PHI. ([4]; Moles N3^-/Moles Enzyme 6.25): .630
- fractional saturation, .PHI. ([4]; Moles N3^-/Moles Enzyme 6.92): .679
- fractional saturation, .PHI. ([4]; Moles N3^-/Moles Enzyme .38): .062
- fractional saturation, .PHI. ([4]; Moles N3^-/Moles Enzyme .77): .105
- number of azide binding sites (extrapolation of the stoichiometric line to the baseline) ([4]; plot of .PHI. vs ligand/enzyme mole ratio): 7.6 moles of azide per mole of enzyme
- 1/V ([5]; NaN3 .0001 g/l, MeOH .004 M): .0488
- 1/V ([5]; NaN3 .0001 g/l, MeOH .016 M): .04
- 1/V ([5]; NaN3 .0002 g/l, MeOH .0005 M): .2632
- 1/V ([5]; NaN3 .0002 g/l, MeOH .001 M): .1429
- 1/V ([5]; NaN3 .0002 g/l, MeOH .002 M): .0725
- 1/V ([5]; NaN3 .0002 g/l, MeOH .004 M): .0588
- 1/V ([5]; NaN3 .0002 g/l, MeOH .008 M): .0455
- 1/V ([5]; NaN3 .0002 g/l, MeOH .016 M): .0377
- 1/V ([5]; NaN3 .0005 g/l, MeOH .0005 M): .625
- 1/V ([5]; NaN3 .0005 g/l, MeOH .001 M): .4
- 1/V ([5]; NaN3 .0005 g/l, MeOH .002 M): .1667
- 1/V ([5]; NaN3 .0005 g/l, MeOH .004 M): .1111
- 1/V ([5]; NaN3 .0005 g/l, MeOH .008 M): .0813
- 1/V ([5]; NaN3 .0005 g/l, MeOH .016 M): .0602
- 1/V ([5]; NaN3 .001 g/l, MeOH .001 M): 1
- 1/V ([5]; NaN3 .001 g/l, MeOH .002 M): .333
- 1/V ([5]; NaN3 .001 g/l, MeOH .004 M): .1667
- 1/V ([5]; NaN3 .001 g/l, MeOH .008 M): .111
- 1/V ([5]; NaN3 .001 g/l, MeOH .016 M): .0645
- Ki ([5]; estimated from 1/V vs 1/[S] plots, pH 7.5, read-out: binding constant for NaN3 inhibitor, Ki): 6 µM
- type of inhibition ([5]; from 1/V vs 1/[S] plots): linear, mixed-type inhibition
- Color at 15 min. ([2]; a few crystals (about 1 mg) added to 1 mL purified enzyme solution, room temperature): Red immediately
- EU/mL* at 15 min. ([2]; a few crystals (about 1 mg) added to 1 mL purified enzyme solution, room temperature, 15 min): 75 EU/mL

SMILES: CO [methanol]
- Kd ([5]; estimated from 1/V vs 1/[S] plots, pH 7.5, read-out: binding constant for methanol substrate, KS): 600 µM
